# According to US7635722B1, “Chemical induced intracellular hyperthermia” (priority 1998, dated 2009):
# What was measured:
# heat shock protein = assay: DNP induction of autologous heat shock proteins; assay type: in vivo, human; conditions: after cessation of DNP
# Experimental: DNP would be given orally at doses to increase the V02 from 1.5 to 5 times above normal per day for a period of 2-6 days or, as an infusion at doses that would increase V02 and core body temperatures no greater than 39° C. for periods of 5 to 6 hours or, intravenous doses of DNP alone, with vasopressors, or other short acting metabolic stimulators, that would increase V02 to equivalent core temperatures of 40-41° C. for periods of 15-30 minutes. Within 8-48 hours after cessation of DNP, the patient would have maximum heat shock protein production. Such DNP induced stress would improve clinical outcome by induction of cellular heat shock protein synthesis with protection of the patient's, organs, tissues and cells from subsequent ischemic surgical or traumatic procedures.
# glioma = assay: DNP enhanced PET-FDG scan, glioma (Example 7); assay type: in vivo, human; design: key to metabolic grade of FDG uptake, selected target / metabolic grade, hypermetabolic component in the tumor area / metabolic grade, remaining viable tumor: I: FDG uptake less than contralateral white matter; II: uptake between the levels in contralateral white and gray matter; III: FDG uptake equal to or greater than in contralateral gray matter
# Text: Pretreatment protocol: three days prior to DNP dosing and repeat PET-FDG scan, the patient's dosage of phenyloin was increased from 100-mg three times daily to 200-mg three times a day. The same positron emission tomogram, a CTI-Siemens 933/08-12 which provides a 6.75-mm adjacent slices and in-plane spatial resolution (full-width at half maximum) of ˜5 mm, was to be used. The highest level of non to DNP stimulated FDG uptake in the tumor area was to be compared and qualitatively graded by two radiologists. Independently, each investigator was to visually evaluate the positron emission tomogram and use the following metabolic grading scale: I, FDG uptake less than contralateral white matter; II, uptake between the levels in contralateral white and gray matter; III, FDG uptake equal to or greater than in contralateral gray matter.
# Diagnostic—treatment protocol: the patient was given a 300 mg capsule of DNP (approximately 4 mg/kg body weight) three hours prior to undergoing a PET-FDG scan. Forty minutes prior to the emission scan they were intravenously injected with a bolus of FDG according to standard methodology. Immediately prior to the 20-minute emission scan the patients VO2 uptake was 40% above that at baseline. The patients DNP/VO2 flow chart is FIG. 24.
# [1] = test system: inner mitochondrial membrane; conditions: lowered from −180; cited from earlier work
# [2] = test system: chronically HIV infected HUT-78 cells; assay: in vitro inactivation of chronically HIV infected cells; assay type: cell-based; conditions: varying concentrations of DNP (FIG. 16)
# Text: Clinical assessment and treatment evaluation: HIV and HIV-infected T cells are known to be more sensitive to killing by heat than uninfected lymphocytes. Susceptibility to heat killing is enhanced with increased oxygen free radical production. Acute and chronically infected cells have decreased levels of manganous superoxide dismutase (MnSOD) activity. MnSOD is located exclusively in mitochondria. Mathematical modeling of human HIV production and CD4+ T cell turnover predicts that reducing both free virus and actively infected cells by a minimum of 40% with 1 hour of 42° C. therapeutic hyperthermia every third day will promote recovery of the uninfected T-cell population. Human HIV studies with extracorporeal hyperthermia of 41-42° C. have reported isolated cases of extended patient survival, elimination of detectable virus, and improvement of Kaposi's sarcoma lesions. DNP is known to generate intracellular hyperthermia and oxygen free radicals from the level of the inner mitochondrial membrane. Studies on in vitro inactivation of chronically HIV infected HUT-78 cells by various concentrations of DNP are graphically represented in FIG. 16.
# [3] = test system: metastatic, hormone-refractory prostate carcinoma; assay: DNP with methylene blue, prostate carcinoma (Example 9); assay type: in vivo, human
# Experimental: Pretreatment protocol: the patient was transfused with 2 units of packed red blood cells 48 hours prior to undergoing treatment. Intravenous fluids (Lactated Ringer's solution) were administered at a rate of 100 cc/hour. The patient was dressed in comfortable cotton clothing and placed in an air-conditioned room. Equipment for monitoring heart rate and rhythm, temperature and oxygen consumption was utilized as outlined in Example 1. An oral breathing tube was used to conduct TEEM VO2 measurements. Oxygen supplementation and “crash cart” was available at bedside.
# Treatment protocol: baseline VO2 measurements for 8 minutes established an average VO2 of 250 cc/minute. DNP, at a dose of 2 mg/kg, was infused intravenously over a 2 minute period. Repeat VO2 at 20 minutes was stabilized at 340-360 cc/minute. An additional 1 mg/kg DNP infusion was administered, and 15 minutes thereafter the VO2 increased and stabilized at 420 cc/minute. Ten minutes thereafter, an infusion of methylene blue, 2 mg/kg (dissolved in a […] pyrogen-free isotonic saline solution-35 ml) was administered over 20 minutes.
# By hour 3, VO2 declined to the 360-380 cc/minute range. An additional 1 mg/kg dose of DNP was infused over a 2 minute period. […] Rectal probe temperature increased to a maximum of 1.3° C. over baseline. […] The protocol was repeated every other day for a total of 15 treatments (30 days). Therapy was discontinued for 2 weeks and the cycle was again repeated for an additional 30 days, treatment being administered every other day.
# [4] = DNP enhancement, one year after diagnosis and therapy
smiles,measurement,setting,value
"O=[N+]([O-])c1ccc(O)c([N+](=O)[O-])c1 [DNP, 2,4-dinitrophenol]",time to maximum heat shock protein production,heat shock protein,8 to 48 h
same,DNP enhanced PET-FDG scan finding,"glioma; 300 mg oral DNP, none without DNP",two areas of hypermetabolism
same,"metabolic grade of FDG uptake, selected target",glioma; DNP enhanced PET-FDG scan,III
same,"metabolic grade, hypermetabolic component in the tumor area",glioma; [4],II
same,"metabolic grade, remaining viable tumor",glioma; [4],I
same,inner mitochondrial membrane potential,[1],−145 mV
same,killing of chronically HIV infected HUT-78 cells,[2],killing of chronically HIV infected HUT-78 cells
same,bone pain,"[3]; 6th day following therapy, DNP with methylene blue","decrease in their low back, hip and other areas of bone pain"
same,PSA values,[3]; 6 weeks after treatment,30 ng/mL
same,tumor necrotic on prostatic biopsy,[3]; 10 weeks after initiation of treatment,95%
same,analgesic use,[3]; by 2 weeks,off all narcotic (morphine) analgesics
same,acid phosphatase,[3]; day 8,remained unchanged
same,increase in PSA level,[3]; day 8,approximately 120%
same,PSA level,"[3]; day 8, pretreatment 58 ng/ml",125 ng/mL
same,repeat prostate biopsy,"[3]; end of month 4, oral DNP 250 mg twice a day after IV therapy",very few intact acini or viable acinar cells
same,weight gained,[3]; three months after initiation of therapy,8.2 kg
